{"source": "patent US4332787A", "about": "“Assay for beta-adrenergic antagonists and antibody therefor” (The Massachusetts General Hospital, priority 1980, dated 1982)", "key": {"[1]": {"assay": "clinical", "settings": "for half-life: human, in vivo, iv", "method": "(§1) The assays were performed in triplicate. […] For each determination, an identical volume of preimmune serum was assayed as a control for antibody binding. […] After an incubation period of 1 hr at 25° C., 100 μl of goat-antirabbit 1 gG antiserum was added to each tube with 50 μl of normal rabbit 1 gG as a carrier for the precipitation. The tubes were again incubated at 25° C. for 30 min. The precipitates were washed twice in Tris buffer and spun in a Sorvall table-top centrifuge at 2,000 rpm×10 min. After the supernatant was decanted, the precipitates were dissolved in 1 ml of 1% sodium dodecyl sulfate. Bound radioactivity was counted in the presence of 10 ml of Aquasol-2 (New England Nuclear) in a Packard Tricarb liquid scintillation counter with a counting efficiency of 40%.\n(§2) The assays to determine the competitive binding of potentially cross-reactive drugs were performed on sera obtained from patients on long-term maintenance with single drugs; digoxin, imipramine and alphamethyldopa, respectively.\nTo further document the reproducibility of the assay, each serum sample from a single subject was assayed in replicate fashion at dilutions of 1:2, 1:3 and 1:4 in pooled human serum."}, "[2]": {"system": "exercise heart rate (patients)", "assay": "Cardiovascular stress testing of patients on oral propranolol, serum propranolol concentration vs. heart rate and blood pressure", "type": "in vivo, human", "method": "The assays were performed in triplicate. […] The ^3 H-(-)-propranolol was obtained from New England Nuclear Corporation. […] The standard curve for the radioimmunoassay was derived from triplicate assay of pooled human serum containing varying amounts of added (±) propranolol HCl. For each determination, an identical volume of preimmune serum was assayed as a control for antibody binding. […] After an incubation period of 1 hr at 25° C., 100 μl of goat-antirabbit 1 gG antiserum was added to each tube with 50 μl of normal rabbit 1 gG as a carrier for the precipitation. The tubes were again incubated at 25° C. for 30 min. The precipitates were washed twice in Tris buffer and spun in a Sorvall table-top centrifuge at 2,000 rpm×10 min. After the supernatant was decanted, the precipitates were dissolved in 1 ml of 1% sodium dodecyl sulfate. Bound radioactivity was counted in the presence of 10 ml of Aquasol-2 (New England Nuclear) in a Packard Tricarb liquid scintillation counter with a counting efficiency of 40%.\nAll subjects were submitted to standard, graded exercise according to the Bruce protocol, and 36 of 54 patients attained at least Stage II of exertion (greater than 6 min of sustained exertion)."}, "[3]": {"settings": "result in words, cited from earlier work"}, "[4]": {"molecular_target": "antibody (antiacebutolol amine immune serum)", "assay": "Competitive binding inhibition of 3H-(-)-propranolol to anti-acebutolol amine antibody (radioimmunoassay)", "set-up": "species or system rabbit", "settings": "for competitive inhibition of 3H-propranolol binding to the antibody: sera containing the drug", "method": "Acebutolol amine having the formula: [drawing 3] was covalently linked to lysozyme. 150 mg of acebutolol amine was dissolved in 1.0 N HCl and was cooled to 0° C. in a salt ice bath. To this solution was added 1 cc of 0.5 M NaNO2 also at 0° C. and the resultant mixture was allowed to stand at 0° C. for 10 min. A mixture of 200 mg crystalline lysozyme in 15% aqueous sodium carbonate at 0° C. was added to 2.0 cc of the above mixture. […] The resultant product was dialyzed against phosphate buffered saline and the purified conjugate was frozen in dry ice-acetone and stored at -20° C. The product then was thawed and centrifuged for 10 min at 3000 rpm. The supernatant was recovered and mixed with Tris buffer, pH 7 at a concentration of 30 mg/ml.\nAlbino rabbits were immunized with this conjugate at monthly intervals for four months. Each rabbit received intracutaneous toepad injections of 0.5 mg of protein emulsified in complete Freund's adjuvant.\nas §1, §2"}, "[5]": {"system": "beta-adrenergic receptor", "settings": "metabolite of propranolol, result in words, cited from earlier work"}}, "note": "Read-outs that look alike come from different tables or passages of the source."}
{"smiles": "CC(C)NCC(O)COc1cccc2ccccc12", "note": "(racemic) [propranolol]", "values": [{"measurement": "half-life", "setting": "[1]; range of serum half-life observed in subjects", "value": "300 to 450", "unit": "min"}, {"measurement": "half-life", "setting": "[1]; serum half-life", "value": "~450", "unit": "min"}, {"measurement": "time the drug remains detectable in serum", "setting": "[1]; single intravenous administration", "value": "six to twelve"}, {"measurement": "correlation between increases in blood pressure or heart rate and serum concentration", "setting": "[2]; 54 patients, exercise, result in words", "value": "lack of correlation"}, {"measurement": "relationship of basal heart rate to plasma concentration, response to exercise, or administered dose", "setting": "[2]; 54 patients, long-term oral propranolol, result in words", "value": "failed to show any significant relationship"}, {"measurement": "p of linear relationship between exercise response (percent of maximal predicted heart rate for age) and serum propranolol concentration", "setting": "[2]; FIG. 3, linear regression analysis", "value": "< 0.0005"}, {"measurement": "average daily dose in adequately blocked patients", "setting": "[2]; adequately blocked patients, oral", "value": "2.45 ± 2.89", "unit": "mg/kg/day"}, {"measurement": "p of difference in average daily dose, adequately vs. inadequately blocked patients", "setting": "[2]; human, in vivo", "value": "< 0.001"}, {"measurement": "average daily dose in inadequately blocked patients", "setting": "[2]; inadequately blocked patients, oral", "value": "1.14±0.62"}, {"measurement": "patients who achieved an exercise response of <67% of predicted", "setting": "[2]; serum level <250 ng/ml", "value": "3/33"}, {"measurement": "patients with exercise response consistent with adequate beta-adrenergic blockade", "setting": "[2]; serum level >250 ng/ml", "value": "10/16"}, {"measurement": "correlation of serum propranolol and heart rate response to maximal exercise", "setting": "[2]; study of 56 patients, result in words", "value": "highly significant"}, {"measurement": "conversion by the liver to 4 OH-propranolol", "setting": "[3]; oral administration", "value": "a significant fraction of the administered dose is converted by the liver to 4 OH-propranolol"}, {"measurement": "bio-availability", "setting": "[3]", "value": "markedly variable bio-availibility"}]}
{"smiles": "CC(C)NCC(O)COc1ccc(O)c2ccccc12", "note": "(stereo not drawn) [4-hydroxypropranolol]", "values": [{"measurement": "Kd", "setting": "[4]; 3H-(-)-propranolol displacement from antibody, read-out: apparent KD (competitive binding inhibition)", "value": 10, "unit": "nM"}, {"measurement": "biological activity at the beta-adrenergic receptor", "setting": "[5]", "value": "equipotent beta adrenergic receptor antagonist"}, {"measurement": "biological activity at the beta-adrenergic receptor", "setting": "[5]; listed as 4 OH-propranolol", "value": "retains full biological activity"}, {"measurement": "detectability of metabolite in serum", "setting": "[3]", "value": "detectable in serum only after the oral route of drug administration"}]}
{"smiles": "NC[C@H](O)c1ccc(O)c(O)c1", "note": "[(-)-norepinephrine]", "values": [{"measurement": "competitive inhibition of 3H-propranolol binding to the antibody", "setting": "[4]; result in words", "value": "failed to produce significant competitive inhibition"}]}
{"smiles": "CC(=O)c1ccc(N)cc1OCC(O)CNC(C)C", "note": "(stereo not drawn) [acebutolol amine]", "values": [{"measurement": "competitive binding inhibition curve compared with propranolol", "setting": "[4]; FIG. 1, result in words", "value": "yields a curve analogous to the displacement binding observed with propranolol"}]}
{"smiles": "C[C@](N)(Cc1ccc(O)c(O)c1)C(=O)O", "note": "[alpha methyldopa]", "values": [{"measurement": "competitive inhibition of 3H-propranolol binding to the antibody", "setting": "[4]; result in words", "value": "failed to produce significant competitive inhibition"}]}
{"smiles": "C[C@H]1O[C@@H](O[C@H]2[C@@H](O)C[C@H](O[C@H]3[C@@H](O)C[C@H](O[C@H]4CC[C@@]5(C)[C@H](CC[C@@H]6[C@@H]5C[C@@H](O)[C@]5(C)[C@@H](C7=CC(=O)OC7)CC[C@]65O)C4)O[C@@H]3C)O[C@@H]2C)C[C@H](O)[C@@H]1O", "note": "[digoxin]", "values": [{"measurement": "competitive inhibition of 3H-propranolol binding to the antibody", "setting": "[4]; result in words", "value": "failed to produce significant competitive inhibition"}]}
{"smiles": "NCCc1ccc(O)c(O)c1", "note": "[dopamine]", "values": [{"measurement": "competitive inhibition of 3H-propranolol binding to the antibody", "setting": "[4]; result in words", "value": "failed to produce significant competitive inhibition"}]}
{"smiles": "CN(C)CCCN1c2ccccc2CCc2ccccc21", "note": "[imipramine]", "values": [{"measurement": "competitive inhibition of 3H-propranolol binding to the antibody", "setting": "[4]; result in words", "value": "failed to produce significant competitive inhibition"}]}
